Results from patent publication US8993632B2, “Inhibitors of the 11-beta-hydroxysteroid dehydrogenase type 1 enzyme” (AbbVie Inc., priority 2005, dated 2015).

Legend:
[1] = molecular target: T1, truncated human 11β-HSD-1 enzyme (24-287AA) (Homo sapiens, UniProt P28845); test: 11β-HSD-1 enzymatic Scintillation Proximity Assay (SPA); type: biochemical
T1 construct: truncated human 11β-HSD-1 enzyme (24-287AA); made in house; host or cells: E. coli (crude lysate)
Method: (§1) The reaction was stopped by adding a non-specific 11β-HSD inhibitor, 18β-glycyrrhetinic acid. The tritiated cortisol was captured by a mixture of an anti-cortisol monoclonal antibody and SPA beads coated with anti-mouse antibodies. The reaction plate was shaken at room temperature and the radioactivity bound to SPA beads was then measured on a β-scintillation counter. The 11-βHSD-1 assay was carried out in 96-well microtiter plates in a total volume of 220 μl. […] In order to drive the reaction in the forward direction, 1 mM G-6-P was also added. Solid compound was dissolved in DMSO to make a 10 mM stock followed by a subsequent 10-fold dilution with 3% DMSO in Tris/EDTA buffer (pH 7.4). […] Reactions were initiated by the addition of 10 μl of 0.1 mg/ml E. coli lysates overexpressing 11β-HSD-1 enzyme. After shaking and incubating plates for 30 minutes at room temperature, reactions were stopped by adding 10 μl of 1 mM glycyrrhetinic acid. The product, tritiated cortisol, was captured by adding 10 μl of […] monoclonal anti-cortisol antibodies and 100 μl SPA beads coated with anti-mouse antibodies. After shaking for 30 minutes, plates were read on a liquid scintillation counter Topcount. Percent inhibition was calculated based on the background and the maximal signal. Wells that contained substrate without compound or enzyme were used as the background, while the wells that contained substrate and enzyme without any compound were considered as maximal signal. Percent of inhibition of each compound was calculated relative to the maximal signal and IC50 curves were generated. This assay was applied to 11β-HSD-2 as well, whereby tritiated cortisol and NAD^+ were used as substrate and cofactor, respectively.

[2] = Metabolic stability screen, human liver microsomes; type: in vitro ADME; settings: 10 μM substrate, 30 min incubation, 37° C., 1 mM NADPH
Method: (§2) Metabolic stability screen: each substrate (10 μM) was incubated with microsomal protein (0.1-0.5 mg/ml) in 50 mM potassium phosphate buffer (pH 7.4) in 48-Well plate. The enzyme reaction was initiated by the addition of 1 mM NADPH, then incubated at 37° C. in a Form a Scientific incubator (Marietta, Ohio, USA) with gentle shaking. The reactions were quenched by the addition of 800 μl of ACN/MeOH (1:1, v/v), containing 0.5 μM of internal standard (IS), after 30 min incubation. Samples were then filtered by using Captiva 96-Well Filtration (Varian, Lake Forest, Calif., USA) and analyzed by LC/MS (mass spectrometry). Liver microsomal incubations were conducted in duplicate.
(§3) The parent remaining in the incubation mixture was determined by LC/MS. The LC/MS system consisted of an Agilent 1100 series (Agilent Technologies, Waldbronn, Germany) and API 2000 (MDS SCIEX, Ontario, Canada). A Luna C8(2) (50×2.0 mm, particle size 3 μm, Phenomenex, Torrance, Calif., USA) was used to quantify each compound at ambient temperature. The mobile phase consisted of (A): 10 mM NH4AC (pH 3.3) and (B): 100% ACN and was delivered at a flow rate of 0.2 ml/min. Elution was achieved using a linear gradient of 0-100% B over 3 min, then held 100% B for 4 min and returned to 100% A in 1 min. The column was equilibrated for 7 min before the next injection.
(§4) The peak area ratios (each substrate over IS) at each incubation time were expressed as the percentage of the ratios (each substrate over IS) of the control samples (0 min incubation). The parent remaining in the incubation mixture was expressed as the percentage of the values at 0 min incubation. The percentage turnover is calculated using the following equation (% turnover=100% turnover−% parent remaining) and is recorded as the percentage turnover in the Table 2.

[3] = Metabolic stability screen, mouse liver microsomes; type: in vitro ADME; settings: 10 μM substrate, 30 min incubation, 37° C., 1 mM NADPH
Method: as §2, §3, §4

CD-1 mice = test: 24-hour inhibitory avoidance in mice after subchronic (3 administration) dosing; type: in vivo; settings: 30 mg/kg PO, BID the day before and one hour before training, vs vehicle control mice
Method: Male CD-1 mice were obtained from Charles River, Wilmington, Mass. Mice were group-housed 10 per cage. The body weight upon arrival was 20-25 g. Food and water were available ad libitum except during experiments. Animals were acclimated to the animal facilities for a period of at least one week prior to commencement of experiments. Animals were tested in the light phase of a 12-hour light: 12-hour dark schedule (lights on 0600 hours).
Compound KK and Compound LL were synthesized at Abbott Laboratories. […] Compound KK was administered in a cloudy, fine suspension, while Compound LL was administered in a solution.
On training day, mice were injected with Compound KK, Compound LL or vehicle one-hour PO before training. One hour following injection (start of training) mice were subjected to a training session in which they were placed in a lighted compartment of a two-compartment chamber (Gemini apparatus, San Diego Instruments, San Diego, Calif.) with a manually operated gate separating the compartments. […] Twenty-four hours later mice were again tested in the same apparatus, except without shock, and the transfer latency from the lighted to the dark compartment recorded and used as an index of memory for the punished response 24 hours earlier. […] Data were analyzed using Mann Whitney U comparisons. […]

human 11-β-HSD-2 = molecular target: T2, human 11-β-HSD-2 (Homo sapiens, UniProt P80365); test: 11β-HSD-2 Scintillation Proximity Assay (tritiated cortisol, NAD+); type: biochemical; settings: human enzyme, SPA
T2 sequence (P80365 1-405): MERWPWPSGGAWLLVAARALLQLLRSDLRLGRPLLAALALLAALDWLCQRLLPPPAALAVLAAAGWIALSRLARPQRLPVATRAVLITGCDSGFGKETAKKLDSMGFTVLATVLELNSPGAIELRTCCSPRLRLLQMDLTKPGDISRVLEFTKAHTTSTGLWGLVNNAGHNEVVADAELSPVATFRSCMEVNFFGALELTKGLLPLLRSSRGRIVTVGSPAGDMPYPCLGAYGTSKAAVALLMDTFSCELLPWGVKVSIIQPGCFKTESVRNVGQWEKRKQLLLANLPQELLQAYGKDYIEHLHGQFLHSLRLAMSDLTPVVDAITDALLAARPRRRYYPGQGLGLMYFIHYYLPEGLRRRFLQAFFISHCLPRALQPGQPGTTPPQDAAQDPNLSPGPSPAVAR
Method: as §1

T1 sequence (P28845 24-287): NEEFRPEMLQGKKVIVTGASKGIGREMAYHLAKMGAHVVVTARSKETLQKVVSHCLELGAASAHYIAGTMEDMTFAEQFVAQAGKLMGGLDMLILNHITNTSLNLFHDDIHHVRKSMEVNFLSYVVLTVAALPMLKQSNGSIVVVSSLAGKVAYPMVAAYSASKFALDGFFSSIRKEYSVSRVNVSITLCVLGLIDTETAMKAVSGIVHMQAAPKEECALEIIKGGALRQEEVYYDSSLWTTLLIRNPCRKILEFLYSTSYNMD

SMILES	IC50 [1] [nM]	Human Liver Microsomal Turnover (%) [2] [%]	Mouse Liver Microsomal Turnover (%) [3] [%]	memory retention (transfer latency), FIG. 3 (CD-1 mice)	IC50 (human 11-β-HSD-2) [nM]
O=C(O)C12CC3CC(C1)C(NC(=O)C1(c4ccccc4)CC1)C(C3)C2 (stereo not shown) [B, E-4-[(1-Phenyl-cyclopropanecarbonyl)-amino]-adamantane-1-carboxylic acid]	102	2	0	–	–
CC1(C(=O)N[C@@H]2[C@@H]3C[C@@H]4C[C@H]2C[C@@](C(N)=O)(C4)C3)CCN(Cc2ccccc2)C1=O (stereo partly shown) [BB]	–	–	–	significant improvement in memory retention	–
CC(C)(C(=O)N[C@@H]1[C@@H]2C[C@@H]3C[C@H]1C[C@@](C(=O)O)(C3)C2)c1ccccc1 [C, E-4-(2-Methyl-2-phenyl-propionylamino)-adamantane-1-carboxylic acid]	82	0	0	–	> 10000
O=C(O)C12CC3CC(C1)C(NC(=O)C1(c4ccc(Cl)cc4)CCC1)C(C3)C2 (stereo not shown) [Compound A, E-4-{[1-(4-Chloro-phenyl)-cyclobutanecarbonyl]-amino}-adamantane-1-carboxylic acid]	43	5	5	–	> 10000
Cc1ccccc1CN1CCCC(C)(C(=O)NC2C3CC4CC2CC(C(N)=O)(C4)C3)C1=O (stereo not shown) [Compound AA]	–	–	–	significant improvement in memory retention	–
NC(=O)C12CC3CC(C1)C(NC(=O)C1(c4ccc(Cl)cc4)CCC1)C(C3)C2 (stereo not shown) [D, E-4-{[1-(4-Chloro-phenyl)-cyclobutanecarbonyl]-amino}-adamantane-1-carboxylic acid amide]	–	10	–	–	–
CC(C)(C(=O)NC1C2CC3CC(C2)CC1C3)c1ccccc1 (stereo not shown) [E, N-2-adamantyl-2-methyl-2-phenylpropanamide]	–	83	–	–	–
O=C(NC1C2CC3CC(C2)CC1C3)C1(c2ccccc2)CC1 (stereo not shown) [F, N-2-adamantyl-1-phenylcyclopropanecarboxamide]	–	62	–	–	–
